Assay results taken from PubChem BioAssay (NCI).
Values joined by “and” are separate entries in the source; they are usually repeats but may differ in a detail not shown here. Equal values may be shown once.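 Assay format: 96-well plates, 48-hour exposure. GI50 is the concentration that inhibits growth by half. TGI is the concentration that stops growth completely.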

Legend:
Experiment in all cases: DTP human tumour cell line panel, 48 h
[1] = system: HCT-116 colon
[2] = system: HOP-62 NSCLC
[3] = system: IGROV1 ovarian
[4] = system: NCI-H226 lung
[5] = system: PC-3 prostate
[6] = system: RPMI-8226 leukemia
[7] = system: SF-268 CNS
[8] = system: SK-MEL-28 melanoma
[9] = system: SK-OV-3 ovarian
[10] = system: SN12C renal

SMILES | GI50 [1] [µM] | TGI [1] | GI50 [2] | TGI [2] | GI50 [3] | TGI [3] | GI50 [4] | TGI [4] | GI50 [5] [µM] | TGI [5] | TGI [6] | GI50 [7] | TGI [7] | GI50 [8] [µM] | TGI [8] | GI50 [9] | TGI [9] | GI50 [10] | TGI [10] | GI50 [6] [µM]
CC(C)C[C@H](NC(=O)[C@@H](NC(=O)c1cccc(-c2ccccc2)n1)[C@@H](C)O)B(O)O | 0.00344 | 0.0142 µM and 0.0127 µM | 0.0106 µM and < 0.0106 µM | 0.0358 µM and 0.0391 µM | 0.0256 µM and 0.0229 µM | 0.171 µM | 0.00219 µM and < 0.0116 µM | 0.00538 µM and 0.0245 µM | 0.0236 | 1.94 µM | < 0.0108 µM | 0.00952 µM and 0.012 µM | 0.0436 µM | 0.00473 | 0.0419 µM and 0.0563 µM | 0.0474 µM and 0.0325 µM | 7.82 µM | 0.0151 µM and 0.0193 µM | 0.413 µM | –
O=C(COc1cccc(/C=C2\Oc3ccc4ccccc4c3C2=O)c1)c1ccc(Cl)cc1 | 2.97 | 10.5 µM | 7.09 µM | 32.4 µM | 0.246 µM | 9.14 µM | 70.6 µM | > 100 µM | 52.1 | > 100 µM | 6.62 µM | 23.1 µM | 79.5 µM | > 100 | > 100 µM | > 100 µM | > 100 µM | 16.8 µM | 37.5 µM | 1.66
COC(=O)[C@H](C)NC(=O)[C@@H](OC)[C@@H]1Cc2cc3cc(OC4CC(OC5CC(O)C(O)C(C)O5)C(O)C(C)O4)c(C)c(O)c3c(O)c2C(=O)[C@H]1OC1CC(OC2CC(OC3CC(C)(O)C(O)C(C)O3)C(O)C(C)O2)C(O)C(C)O1 (some centres not stated) | 0.0245 | > 50 µM | 0.0774 µM | > 50 µM | 0.05 µM | > 50 µM | 0.106 µM | 0.495 µM | 0.184 | > 50 µM | 1.89 µM | 0.092 µM | > 50 µM | 0.0309 | 0.351 µM | 0.359 µM | > 50 µM | 0.101 µM | > 50 µM | 0.1
Cc1nc2c(N3CCCC3)nc(N3CCNCC3)nc2nc1NCc1ccccc1 | 3.96 | 13.4 µM and 11.3 µM | 5.76 µM | 11.8 µM and 8.26 µM | 4.49 µM | 9.84 µM and 15.1 µM | 7.54 µM | 16.1 µM and 28.4 µM | – | 11 µM and 17 µM | 10.2 µM and 4.84 µM | 5.75 µM | 12.2 µM and 15.1 µM | – | 3.75 µM | 6.15 µM | 11.7 µM and 20.5 µM | 6.39 µM | 13 µM and 19.9 µM | 4.08
COc1ccc2c(c1)c(-c1ccc(-c3cn(C)c4ccc(OC)cc34)[nH]1)cn2C | 3.04 | 12.7 µM | 10.1 µM | 33.5 µM | 1.89 µM | 4.35 µM | 8.2 µM | 22.2 µM | 1.58 | 5.71 µM | 3.38 µM | 3.45 µM | 18.1 µM | 3.18 | 12.4 µM | 3.19 µM | 20.9 µM | 2.77 µM | 10.9 µM | 1.28
NC(=O)c1ccccc1NC(=O)c1ccccc1Cl | > 100 | > 100 µM | > 100 µM | > 100 µM | > 100 µM | > 100 µM | > 100 µM | > 100 µM | > 100 | > 100 µM | > 100 µM | > 100 µM | > 100 µM | > 100 | > 100 µM | > 100 µM | > 100 µM | > 100 µM | > 100 µM | > 100
Cc1ncc(C(=O)Nc2ccc(CN3CCN(C)CC3)c(C(F)(F)F)c2)cc1C#Cc1c(N)ncc2ccccc12 | 0.159 | 0.62 µM | 0.524 µM | 1.4 µM | 0.208 µM | 0.823 µM | 0.393 µM | 1.04 µM | 0.461 | 0.996 µM | 1.26 µM | 0.448 µM | 1.09 µM | 0.411 | 0.889 µM | 1.61 µM | 5.06 µM | 0.319 µM | 0.783 µM | 0.396
COC(=O)[C@]12CC[C@@H](C)[C@H](C)[C@@H]1C1=CC[C@@H]3[C@@]4(C)C(C=O)=C[C@@](C)(COS(C)(=O)=O)C4[C@H](O)C[C@@]3(C)[C@]1(C)CC2 (some centres not stated) | 1.1 | 2.57 µM | 2.23 µM | 4.45 µM | 2.58 µM | 7.36 µM | 2.88 µM | 7.31 µM | 1.39 | 6.48 µM | 1.99 µM | 2 µM | 4.82 µM | 2.15 | 5.05 µM | 4.08 µM | 16.2 µM | 2.28 µM | 6.39 µM | 0.342
COc1ccc(-c2cc(-c3cccc(NS(C)(=O)=O)c3)nc(N)c2C#N)cc1 | 0.0496 | 8.73 µM | 0.0689 µM | 34.6 µM | 0.119 µM | > 34.8 µM | 0.0725 µM | 28.2 µM | 0.0971 | 14.2 µM | 8.23 µM | 0.281 µM | 22 µM | 0.18 | 47.2 µM | 0.0879 µM | 1.57 µM | 0.298 µM | 25.1 µM | 0.286
OCC(CCc1c[nH]c2ccccc12)c1c[nH]c2ccccc12 (configuration not stated) | – | 29.2 µM | – | 50.6 µM | – | 27.5 µM | – | 36.7 µM | – | 32.3 µM | 73.5 µM | – | 32.4 µM | – | 36.6 µM | – | 98.5 µM | – | 32.6 µM | –
CC(C)C[C@H](NC(=O)CCn1ccc2ncccc2c1=O)B(O)O | 3.64 | 19 µM | 21.7 µM | > 79 µM | 36.5 µM | > 94.3 µM | 2.22 µM | 6.13 µM | 35.2 | > 100 µM | > 27 µM | 12.6 µM | > 61.2 µM | 6.8 | > 76.7 µM | > 66 µM | > 100 µM | 18.9 µM | > 100 µM | 2.82
O=C1c2ccccc2-c2c1c1ccc([N+](=O)[O-])cc1c(=O)n2CCCNCCO | 0.0612 | 0.441 µM | 0.0408 µM | 0.544 µM | 0.515 µM | 2.45 µM | 1.01 µM | 3.65 µM | 0.0907 | 1.52 µM | 0.239 µM | 0.148 µM | 1.99 µM | 1.27 | 2.62 µM | 0.525 µM | 2.56 µM | 0.287 µM | 2.07 µM | 0.0359
